From US20050234041A1, “Substituted 1-benzazepines and derivatives thereof” (priority 2001, published 2005)
Converted amounts (≈) assume the structure as drawn. Like-named read-outs stand apart in the source and are kept apart here.

Key:
Helicobacter pylori = experiment: MIC, broth dilution method, Helicobacter pylori; type: cell-based; conditions: for MIC: Helicobacter pylori
From the text: (§1) Antibacterial activity can be determined by several standard methods well known by those skilled in the art, including disc diffusions methods, broth dilution minimal inhibitory concentration (MIC) methods, etc., including the detailed method outlined below and as defined by the National Committee of Clinical Laboratory Standards in the United States.
(§2) MIC, Broth Dilution Method
(§3) Cultures of bacteria are initially brought up from the freezer stocks onto chocolate agar plates by streaking a loop-full, then incubated for 18 hours at 35-37° C. in a 5% CO2 incubator.
(§4) Five to 10 colonies are picked from the chocolate agar plate for subculture to Brain-Heart Infusion (BHI) broth or Mueller Hinton broth or BHI containing 4% serum and incubated as described.
(§5) Evaluate the optical density of the organisms in the wells of a 96 well microtiter plate with and without the test compound. The optical density of the organisms in the presence of an active compound will be less than the optical density of the same organism untreated. The activity of the compounds is described as either negative or the lowest concentration inhibiting growth. The results are depicted in Table III, where +/− represents the least activity and ++++ represents the greatest activity. In Table IV, the results are depicted where MIC represents the lowest concentration of antibiotic that inhibits bacterial growth.

Campylobacter jejuni = experiment: MIC, broth dilution method, Campylobacter jejuni; type: cell-based; conditions: for MIC: Campylobacter jejuni
From the text: as §1, §2, §3, §4, §5

[1] = Table V, read-out: MIC (μg/mL) H. pylori
[2] = Table V, read-out: MIC (μg/mL) C. jejuni
[3] = Table IV, MIC, lowest concentration that inhibits bacterial growth, read-out: Antibacterial Activity (micrograms/ml) Helicobacter pylori
[4] = Table IV, MIC, lowest concentration that inhibits bacterial growth, read-out: Antibacterial Activity (micrograms/ml) Campylobacter jejuni

CCN1C(=O)CCCc2ccc(Br)cc21 [Example 191, 8-Bromo-1-ethyl-2,3,4,5-tetrahydro-1H-1-benzazepine-2-one]
MIC (Helicobacter pylori; [1]): 16 µg/mL (≈ 59.7 µM) | MIC (Campylobacter jejuni; [2]): 8 µg/mL (≈ 29.8 µM)

CCN1C(=O)C(Br)(C(=O)OC)CCc2cc(Br)c(OC)cc21 (racemic) [Example 27, 3,7-dibromo-1-ethyl-3(R,S)-methoxycarbonyl-8-methoxy-2,3,4,5-tetrahydro-1H-benzazepine-2-one]
MIC (Helicobacter pylori; [3]): 12.5 µg/mL (≈ 28.7 µM) | MIC (Campylobacter jejuni; [4]): > 200 µg/mL

COc1ccc2c(c1)N(Cc1cccc(F)c1)C(=O)C(C(=O)O)CC2 (racemic) [Example 184, 3(R,S)-carboxyl-1-(3-fluorobenzyl)-8-methoxy-2,3,4,5-tetrahydro-1H-1-benzazepine-2-one]
MIC (Helicobacter pylori; [1]): 125 µg/mL (≈ 364 µM) | MIC (Campylobacter jejuni; [2]): > 250 µg/mL

COc1ccc2c(c1)N(CCOC1CCCCO1)C(=O)C(C(=O)OC(C)(C)C)CC2 (racemic) [Example 221, 3(R,S)-tert-Butoxycarbonyl-8-methoxy-1-[2-(tetrahydro-2H-pyran-2-yl)oxyethyl]-2,3,4,5-tetrahydro-1H-1-benzazepine-2-one]
MIC (Helicobacter pylori; [1]): 15 µg/mL (≈ 35.8 µM) | MIC (Campylobacter jejuni; [2]): > 250 µg/mL

COc1ccc2c(c1)N(CCO)C(=O)C(C(=O)OC(C)(C)C)CC2 (racemic) [Example 222, 3(R,S)-tert-Butoxycarbonyl-1-(2-hydroxy)ethyl-8-methoxy-2,3,4,5-tetrahydro-1H-1-benzazepine-2-one]
MIC (μg/mL) H. pylori (Helicobacter pylori; Table V): 60 µg/mL (≈ 179 µM) | MIC (μg/mL) C. jejuni (Campylobacter jejuni; Table V): >250, μg/mL

CCOC(=O)NC(=S)Nc1cc2c(cc1O)NC(=O)C(C(=O)OC(C)(C)C)CC2 (racemic) [Example 215, 3(R,S)-tert-Butoxycarbonyl-7-[(ethoxycarbonylamino)thiocarbonyl)]amino-8-hydroxyl-2,3,4,5-tetrahydro-H-1-benzazepine-2-one]
MIC (μg/mL) H. pylori (Helicobacter pylori; Table V): 30 µg/mL (≈ 70.8 µM) | MIC (μg/mL) C. jejuni (Campylobacter jejuni; Table V): >250, μg/mL

COc1ccc2c(c1)N(CCN1CCOCC1)C(=O)C(C(=O)OC(C)(C)C)CC2 (racemic) [Example 213, 3(R,S)-tert-Butoxycarboxyl-8-methoxy-1-[2-(4-morpholinyl)]ethyl-2,3,4,5-tetrahydro-1H-1-benzazepine-2-one]
MIC (μg/mL) H. pylori (Helicobacter pylori; Table V): 125 µg/mL (≈ 309 µM) | MIC (μg/mL) C. jejuni (Campylobacter jejuni; Table V): >250, μg/mL

COc1ccc2c(c1)N(CC(N)=O)C(=O)C(C(=O)OC(C)(C)C)CC2 (racemic) [Example 201, 1-(Aminocarbonyl)methyl-3(R,S)-tert-butyloxycarbonyl-8-methoxy-2,3,4,5-tetrahydro-1H-1-benzazepine-2-one]
MIC (Helicobacter pylori; [1]): 60 µg/mL (≈ 172 µM) | MIC (Campylobacter jejuni; [2]): > 250 µg/mL

O=C1CCCc2c(O)cccc2N1 [Example 188, 6-Hydroxy-2,3,4,5-tetrahydro-1H-1-benzazepine-2-one]
MIC (Helicobacter pylori; [1]): 32 µg/mL (≈ 181 µM) | MIC (Campylobacter jejuni; [2]): > 250 µg/mL

COc1ccc2c(c1)N(CC#N)C(=O)C(C(=O)OC(C)(C)C)CC2 (racemic) [Example 196, 3(R,S)-tert-Butoxycarbonyl-1-cyanomethyl-8-methoxy-2,3,4,5-tetrahydro-1H-1-benzazepine-2-one]
MIC (Helicobacter pylori; [1]): 4 µg/mL (≈ 12.1 µM) | MIC (Campylobacter jejuni; [2]): 30 µg/mL (≈ 90.8 µM)

CCN1C(=O)C(C(=O)OC)CCc2cc(Br)c(OC)cc21 (racemic) [Example 28, 7-bromo-1-ethyl-3(R,S)-methoxycarbonyl-8-methoxy-2,3,4,5-tetrahydro-1H-1-benzazepine-2-one]
MIC (Helicobacter pylori; [3]): 25 µg/mL (≈ 70.2 µM) | MIC (Campylobacter jejuni; [4]): > 200 µg/mL

O=C1CCCc2ccccc2N1 [Example 187, 2,3,4,5-tetrahydro-1H-1-benzazepine-2-one]
MIC (Helicobacter pylori; [1]): 64 µg/mL (≈ 397 µM) | MIC (Campylobacter jejuni; [2]): > 250 µg/mL

CCN1C(=O)CCCc2ccc(N)cc21 [Example 190, 8-Amino-1-ethyl-2,3,4,5-tetrahydro-1H-1-benzazepine-2-one]
MIC (Helicobacter pylori; [1]): 64 µg/mL (≈ 313 µM) | MIC (Campylobacter jejuni; [2]): 250 µg/mL (≈ 1220 µM)

COc1ccc2c(c1)NC(=O)C(C(=O)NO)CC2 (stereo not drawn) [Example 197, 3-Hydoxyaminocarbonyl-8-methoxy-2,3,4,5-tetrahydro-1H-1-benzazepine-2-one]
MIC (Helicobacter pylori; [1]): 125 µg/mL (≈ 499 µM) | MIC (Campylobacter jejuni; [2]): > 250 µg/mL

COc1cc2c(cc1N)CCC(C(=O)OC(C)(C)C)C(=O)N2 (racemic) [Example 199, 7-Amino-3(R,S)-tert-butoxycarbonyl-8-methoxy-2,3,4,5-tetrahydro-1H-1-benzazepine-2-one]
MIC (Helicobacter pylori; [1]): 125 µg/mL (≈ 408 µM) | MIC (Campylobacter jejuni; [2]): > 250 µg/mL
